According to patent US6770738B1, “Higher order structure and binding of peptide nucleic acids” (ISIS Pharmaceuticals, Inc., priority 1992, dated 2004):

What was measured:
[1] = tested on: pT9CT9C plasmid linearized by CfrlOI; test: Site-specific S1 nuclease digestion of plasmid with two PNA sites complexed with PNA; format: biochemical; settings: 30 units S1 nuclease; target sites are for T5CT4
From the text: was cloned into the Sal1 site of the pUC19 plasmid. This plasmid, which contained two binding sites for PNA H-T5CT4-LysNH2 (SEQ ID NO:6) separated by six base pairs, was designated pT9CT9C. Strand displacement in the two T5CT4 sites led to opening of the entire region, including the sequence GTCGAC/GACGAC, providing a substrate for the S1 nuclease in both strands. As control, a pT9C-5 plasmid was used, which carried only one T5CT4 (SEQ ID NO:6) insert cloned into the SalI site of the pUC19 plasmid.
cloned in the Sal1 site of the pUC19 polylinker. The pT9C-5 plasmid carried the single insert A5GA4/CT5 (SEQ ID NO:4) cloned in the same site. The PNA-DNA complexes were prepared as described in Example 2 with the only difference being the duration of the incubation was 2 hours. Digestion by 30 units of the S1 nuclease was performed in the same buffer as described in Example 2 with two exceptions, lanes 2 and 4. In lane 2, 15 units of the enzyme were used, whereas in lane 4 200 mM NaCl and 1 mM of ZnSO4 were added to the buffer. Lane 1: the reference band obtained by digestion with the BamHI restriction enzyme of the pUC 19 plasmid linearized by the CfrlOI restriction enzyme. Lanes 2-4 site-specific digestion by the S1 nuclease of the linearized pT9C plasmid complexed with PNA H-T5CT4-LysNH2 (SEQ ID NO:6). Lanes 5-7: various controls. Lane 8: the same experiment as in lane 3, but using PNA T10 (SEQ ID NO:2) instead of T4CT5 (SEQ ID NO:8). Lane 9: the same experiment as in lane 3, but using PNA T2CT2CT4 (SEQ ID NO:1) instead of T4CT5 (SEQ ID NO:8). Lane 10: the same experiment as in lane 3, but using the pT9C-5 plasmid instead of the pT9C. In the header PNA T5CT4 (SEQ ID NO:6) is labelled as 1, T10 (SEQ ID NO:2) as 2 and T2CT2CT4 (SEQ ID NO:1) as 3.
The bands observed by gel electrophoresis have the same position and width as the band created by the BamHI restriction enzyme. […] Moreover, under the much milder S1 nuclease treatment necessary to generate the data for the pT9CT9C, the yield of double-stranded breaks in the pT9C-5 plasmid was extremely low (lane 10).

[2] = tested on: pA98 plasmid relaxed circles (rcDNA); test: Unwinding of closed circular DNA with PNA; format: binding
Experimental: Relaxed circular DNA was prepared by treating ordinary supercoiled plasmid DNA with an extract containing DNA topoisomerase I, as described by V. I. Lyamichev, et. al., J. Biomolec. Struct. Dynamics, 3, 327-338 (1985). DNA-PNA complexes were obtained by incubation of 1-2 μg of DNA in 5-20 μL TE with 0.4 optical units./mL of PNA for 4 hours at 20-22° C. This corresponded to about 10 times molar excess of PNA to its potential binding sites. Agarose (1.5%) gel electrophoresis was performed in the TAE buffer containing 1 μg/mL of chloroquine at 10° C. for 15 hours at 1.5 V/cm. Tw—dimensional gel electrophoresis was preformed in the first direction (from top to bottom) in the TAE buffer and in the second direction (from left to right) in the same buffer with addition of 1 μg/mL of chloroquine.
In this example, the efficiency of PNA T10 incorporating into the DNA duplex and displacing the DNA T-strand in solution was shown by unwinding of closed circular DNA by PNA. The pA98 plasaid (Example 16) was prepared in the form of relaxed circles (rcDNA). It was expected that complexing with PHA would unwind about 10 turns of the DNA duplex. Because of topological constraints (the two strands in rcDNA were closed and therefore topologically linked), this unwinding would make the rcDNA molecules behave as if they were positively supercoiled by 10 superturns. […]

[3] = tested on: A98/T98 insert of pA98 plasmid; test: Electron microscopy of PNA-DNA complex; format: binding
Experimental: A pA98 plasmid containing an A98/T98 (SEQ ID NO:42) insert in the PstI site of the polylinker of a pUC 19 plasmid was used. 0.1 μg of the pA98 plasmid linearized by the Cfr1OI I restriction enzyme was incubated with 0.15 μg of PNA H-T10-LysNH2 (SEQ ID NO:2) at 37 °C. for 3 hours in 10 μL of the TE buffer (10 mM of Tris-HCl, 1 mM of Na3EDTA, pH 8.0). The complex was diluted with buffer containing 10 mM of Tris-HCl, 10 mM of NaCl, pH 7.5 to the final DNA concentration of 0.2-0.5 μg/mL and absorbed to the surface of glow discharged in tripropylamine carbon grid for 2 minutes as described in Duochet, J., Ultrastruct. Res., 1971 35, 147-167. The grid was stained in 0.1-0.5 % water solution of uranyl acetate for 10-15 sec and dried. The sample was shadowed with Pt/C (95/5) and studied in a Philips 400 electron microscope at accelerating voltage of 40 kV. The length of the DNA molecules were measured and a histogram was plotted as described by A. V. Kurakin in Micron Microscopica Acta, 22,213-221 (1991). The length of unwound region was measured by its thicker strand, for which the number of base pairs per unit length was assumed to be the same as for the DNA duplex. For analysis by use of a histogram, the molecules were oriented in such a manner that the left boundary of the loop was closer to the end of the molecule.

Substance: H-T10LysNH2 [PNA H-T10-LysNH2]
- S1 nuclease digestion of pT9CT9C plasmid complexed with PNA [1]: very weak digestion
- salt concentration tolerated by complex formed at low salt ([2]; NaCl): at least 500 mM
- turns of the double helix released upon binding of PNA ([2]; TE buffer, two-dimensional gel electrophoresis): 8-10 turns
- strand displacement loop at full occupancy of the target [3]: 90-100 bases
- average size of the loop ([3]; standard error 17 bp): 114 bp
